Values after ≈ are worked out from the molar mass of the structure shown.
How the values were obtained:
[1] = system: Phytophthora infestans; assay: whole plant or invertebrate; format: in vivo; details: Phytophthora infestans, in Solanum lycopersicum, read-out: disease control rating, Ex. H, 100 PPM
[2] = system: Venturia inaequalis; assay: Example A apple scab; format: in vivo; details: 100 PPM, read-out: disease control rating, Ex. A
How it was run: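 Acetone solution (6% of final vol.) → suspension at 100 or 20 ppm in water + 250 ppm TREM 014 surfactant; sprayed to run-off on apple seedlings.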

[3] = system: Erysiphe graminis f. sp. tritici; assay: Example D wheat powdery mildew; format: in vivo; details: Blumeria graminis, 144 h; 100 PPM; read-out: disease control rating, Ex. D
How it was run: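 Spray to run-off on wheat seedlings; test suspension 100 or 20 ppm compound, acetone 6% v/v, 250 ppm polyhydric alcohol ester surfactant in water.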

[4] = system: Pyricularia oryzae; assay: whole plant or invertebrate; format: in vivo; details: Pyricularia oryzae, 120 h, read-out: disease control rating, Ex. E, 100 PPM
[5] = system: Plasmorpara viticola; assay: Example I grape downy mildew; format: in vivo; details: read-out: disease control rating, Ex. I
How it was run: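 First, each compound is taken up in acetone amounting to 6% of the final volume. It is then suspended in purified water containing 250 ppm of the polyhydric alcohol ester surfactant TREM 014, at 100 or 20 ppm. Finally, the suspension is sprayed onto grape seedlings until run-off.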

[6] = system: Aspergillus fumigatus ATCC 28214; assay: In vitro antifungal MIC, microtiter broth dilution; details: Aspergillus fumigatus, ATCC28214, 24 h, read-out: MIC values, A. fumigatus, 30°, 24 hours
[7] = system: Botrytis cinerea; assay: Example C bean grey mold; format: in vivo; details: Botrytis cinerea, 24 h, 100 PPM; read-out: disease control rating, Ex. C
How it was run: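 Broad bean seedlings; foliar spray to run-off. Cmpd 100 or 20 ppm in water + 250 ppm TREM 014, acetone 6% v/v final.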

[8] = system: Puccinia recondita; assay: Example G wheat leaf rust; format: in vivo; details: 100 PPM, read-out: disease control rating, Ex. G
[9] = system: Cercosporidium personatum; assay: Example B Peanut Late Leafspot; format: in vivo; details: Nothopassalora personata; 100 PPM; read-out: disease control rating, Ex. B
How it was run: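 Foliar spray on peanut seedlings, to run-off; test rates 100 or 20 ppm. Formulation: acetone at 6% of final volume, water with 250 ppm polyhydric alcohol ester surfactant.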

[10] = system: Fusarium oxysporum f. sp. cucumerinum; assay: Example L cucumber wilt; format: in vivo; details: 336 h, 5 kg/ha, read-out: disease control rating, Ex. L
Protocol: […] Seeds and soil were then inoculated with a mixture of sand, cereal and mycelium of the fungus Fusarium oxysporum f. sp. cucumerinum, causal agent of cucumber wilt, and incubated in a growth chamber at 30° C. for 14 days. Disease ratings were then made.

[11] = system: Sclerotium rolfsii; assay: Example M southern blight; format: in vivo; details: Agroathelia rolfsii, 336 h; 5 kg/ha; read-out: disease control rating, Ex. M
Protocol: […] Seeds and soil were then inoculated with a mixture of sand, cereal and mycelium of the fungus Sclerotium rolfsii, causal agent of sourthern blight, and incubated in a growth chamber at 30° C. for 14 days. Disease ratings were then made.

[12] = system: ARROWHEAD; assay: Test C rice paddy; format: in vivo, Sagittaria spp.; details: Sagittaria, 504 h, 21 days, read-out: plant response; for pest or weed control at 64 g/ha: 0064 G/HA; for pest or weed control at 125 g/ha: 0125 G/HA; for pest or weed control at 250 g/ha: 0250 G/HA; for pest or weed control at 500 g/ha: 0500 G/HA
From the text: (§1) Sixteen cm diameter Airlite plastic pots were partially filled with Tama slit loam soil and the soil saturated with water. Japonica and Indica rice seedlings a the 2.0 to 2.5 leaf stage were transplanted into 1/3 of the pots. Into another third of the pots were transplanted seedling or sprouted tubers of water plantain (Alisma trivale), Scripus (Scirpus paludosus), Cyperus (Cyperus esculentus), and arrowhead (Sagittaria spp.). The remaining pots were planted with barnyardgrass (Echinochloa crusgalli) seeds and sprouted tubes of water chestnut (Eleocharis spp.). These weeds all represent major rice weeds or genera of weeds important in rice. Three to four days after planting, the water level was raised to 3 cm (about 1200 ml/pot) and maintained a this level throughout the test. Chemical treatments were applied directly to the paddy water, within 24 hours of raising the water, after being formulated in a nonphytotoxic solvent. The pots were maintained in the greenhouse.

[13] = system: WATER PLAINTAIN; assay: Test C rice paddy; format: in vivo, Alisma trivale; details: 504 h, 21 days, read-out: plant response; for pest or weed control at 64 g/ha: 0064 G/HA; for pest or weed control at 125 g/ha: 0125 G/HA; for pest or weed control at 250 g/ha: 0250 G/HA; for pest or weed control at 500 g/ha: 0500 G/HA
From the text: as §1

[14] = system: RICE INDICA EFF; assay: Test C rice paddy; format: in vivo; details: Oryza sativa, 504 h, 21 days, read-out: plant response; for pest or weed control at 64 g/ha: 0064 G/HA; for pest or weed control at 125 g/ha: 0125 G/HA; for pest or weed control at 250 g/ha: 0250 G/HA; for pest or weed control at 500 g/ha: 0500 G/HA
From the text: as §1

[15] = system: WATERCHESTNUT; assay: Test C rice paddy; format: in vivo, Eleocharis spp.; details: Eleocharis, 504 h, 21 days, read-out: plant response; for pest or weed control at 64 g/ha: 0064 G/HA; for pest or weed control at 125 g/ha: 0125 G/HA; for pest or weed control at 250 g/ha: 0250 G/HA; for pest or weed control at 500 g/ha: 0500 G/HA
From the text: as §1

[16] = system: RICE JAP EFF; assay: Test C rice paddy; format: in vivo, Japonica rice; details: Oryza sativa, 504 h, 21 days, read-out: plant response; for pest or weed control at 64 g/ha: 0064 G/HA; for pest or weed control at 125 g/ha: 0125 G/HA; for pest or weed control at 250 g/ha: 0250 G/HA; for pest or weed control at 500 g/ha: 0500 G/HA
From the text: as §1

[17] = system: BARNYARDGRASS; assay: Test C rice paddy; format: in vivo, Echinochloa crusgalli; details: Echinochloa crus-galli, 504 h, 21 days, read-out: plant response; for pest or weed control at 64 g/ha: 0064 G/HA; for pest or weed control at 125 g/ha: 0125 G/HA; for pest or weed control at 250 g/ha: 0250 G/HA; for pest or weed control at 500 g/ha: 0500 G/HA
From the text: as §1

SMILES	pest or weed control at 100 ppm [1]	pest or weed control at 100 ppm [2]	pest or weed control at 100 ppm [3]	pest or weed control at 100 ppm [4]	pest or weed control at 100 ppm [5]	MIC [6]	pest or weed control at 100 ppm [7]	pest or weed control at 100 ppm [8]	pest or weed control at 100 ppm [9]	pest or weed control at 5000 g/ha [11]	pest or weed control at 64 g/ha [12]	pest or weed control at 125 g/ha [12]	pest or weed control at 250 g/ha [12]	pest or weed control at 500 g/ha [12]	pest or weed control at 1000 g/ha [12]	pest or weed control at 64 g/ha [13]	pest or weed control at 125 g/ha [13]	pest or weed control at 250 g/ha [13]	pest or weed control at 500 g/ha [13]	pest or weed control at 1000 g/ha [13]	also measured
C=C(c1ccc(F)cc1)C(O)(Cn1cncn1)c1ccccc1F (stereo not shown) [Example 644]	23%	100%	100%	100%	0%	0.4 µg/mL (≈ 1.22 µM)	94%	100%	100%												
C=C(c1ccccc1)C(O)(Cn1cncn1)c1ccc(F)cc1F (stereo not shown) [Example 52, 2-(2,4-Difluorophenyl)-3-phenyl-1-(1H-1,2,4-triazol-1-yl)-3-buten-2-ol]	0%	100%	94%	93%	0%	0.4 µg/mL (≈ 1.22 µM)	95%	100%	100%	0%											pest or weed control at 5000 g/ha [10]: 0%
C=C(c1ccc(F)cc1)C(O)(Cn1cncn1)c1ccc(F)cc1F (stereo not shown) [Example 4, 2-(2,4-Difluorophenyl)-3-(4-fluorophenyl)-1-(1H-1,2,4-triazol-1-yl)-3-buten-2-ol]	0%	100%	100%	96%	81%	0.8 µg/mL (≈ 2.32 µM)	88%	100%	100%	0%											
C=C(c1ccccc1)C(O)(Cn1cncn1)c1ccc(Cl)cc1 (stereo not shown) [Example 51, 2-(4-Chlorophenyl)-3-phenyl-1-(1H-1,2,4-triazol-1-yl)-3-buten-2-ol]	0%	100%	100%	0%	0%	3.2 µg/mL (≈ 9.82 µM)	96%	100%	100%												
C=C(c1ccc(Cl)cc1)C(O)(Cn1cncn1)c1ccccc1F (stereo not shown) [Example 669]	0%	100%	100%	96%	0%	0.8 µg/mL (≈ 2.33 µM)	90%	100%	100%	0%	0%	0%	0%	0%	0%	0%	0%	0%	0%	0%	pest or weed control at 64 g/ha [14]: 0%; pest or weed control at 125 g/ha [14]: 0%; pest or weed control at 250 g/ha [14]: 0%; pest or weed control at 500 g/ha [14]: 0%; pest or weed control at 1000 g/ha [14]: 0%; pest or weed control at 64 g/ha [15]: 0%; pest or weed control at 125 g/ha [15]: 0%; pest or weed control at 250 g/ha [15]: 0%; pest or weed control at 500 g/ha [15]: 0%; pest or weed control at 1000 g/ha [15]: 0%; pest or weed control at 64 g/ha [16]: 0%; pest or weed control at 125 g/ha [16]: 0%; pest or weed control at 250 g/ha [16]: 0%; pest or weed control at 500 g/ha [16]: 0%; pest or weed control at 1000 g/ha [16]: 0%; pest or weed control at 64 g/ha [17]: 90%; pest or weed control at 125 g/ha [17]: 98%; pest or weed control at 250 g/ha [17]: 98%; pest or weed control at 500 g/ha [17]: 90%; pest or weed control at 1000 g/ha [17]: 100%
C=C(c1ccc(Cl)cc1Cl)C(O)(Cn1cncn1)c1ccccc1F (stereo not shown) [Example 107]											0%	0%	0%	95%	70%	0%	0%	0%	60%	80%	pest or weed control at 64 g/ha [14]: 0%; pest or weed control at 125 g/ha [14]: 0%; pest or weed control at 250 g/ha [14]: 30%; pest or weed control at 500 g/ha [14]: 40%; pest or weed control at 1000 g/ha [14]: 50%; pest or weed control at 64 g/ha [15]: 0%; pest or weed control at 125 g/ha [15]: 0%; pest or weed control at 250 g/ha [15]: 40%; pest or weed control at 500 g/ha [15]: 60%; pest or weed control at 1000 g/ha [15]: 30%; pest or weed control at 64 g/ha [16]: 0%; pest or weed control at 125 g/ha [16]: 0%; pest or weed control at 250 g/ha [16]: 30%; pest or weed control at 500 g/ha [16]: 40%; pest or weed control at 1000 g/ha [16]: 50%; pest or weed control at 64 g/ha [17]: 0%; pest or weed control at 125 g/ha [17]: 0%; pest or weed control at 250 g/ha [17]: 40%; pest or weed control at 500 g/ha [17]: 90%; pest or weed control at 1000 g/ha [17]: 80%

Reference: patent US4965280A, “Antifungal carbinols” (E. I. Du Pont de Nemours and Company, priority 1989, dated 1990)
